Laboratory results from US10227349B2, “Pyrazolo[1,5-a]pyrimidine compound” (Eisai R&D Management Co., Ltd., priority 2016, dated 2019).

Legend:
[1] = target: T1, PAR2 (Homo sapiens, UniProt P55085); assay: Intracellular calcium concentration measurement (trypsin-induced calcium elevation, FDSS6000); assay type: cell-based; conditions: HEK293 cells, trypsin 5 U/mL as agonist, test compound added 30 min before measurement; read-out: Inhibitory activity on intracellular calcium elevation (IC50 (nM))
T1 construct: Human embryonic kidney cell line HEK293 cells cultured using DMEM culture medium; endogenous in cells; host or cells: HEK293
T1 sequence (P55085 26-397): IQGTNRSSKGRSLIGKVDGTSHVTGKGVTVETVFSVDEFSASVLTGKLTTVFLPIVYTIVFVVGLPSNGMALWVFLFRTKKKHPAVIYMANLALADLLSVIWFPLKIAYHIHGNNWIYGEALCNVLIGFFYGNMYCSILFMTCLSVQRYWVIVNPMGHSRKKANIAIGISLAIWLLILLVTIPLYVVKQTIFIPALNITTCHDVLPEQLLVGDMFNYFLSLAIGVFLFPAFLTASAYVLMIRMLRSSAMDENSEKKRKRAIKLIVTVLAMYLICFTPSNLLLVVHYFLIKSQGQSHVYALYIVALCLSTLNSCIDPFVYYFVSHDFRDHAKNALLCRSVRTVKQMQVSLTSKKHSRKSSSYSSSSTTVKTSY
Description: In the present specification, examples of the measurement method for the PAR2 inhibitory activity include measurement method for a concentration elevation of intracellular calcium; measurement method for a production increase of intracellular inositol trisphosphate; measurement method for an increase in intracellular protein phosphorylation by protein kinase C and MAP kinase; and measurement method for a production amount or a release amount of inflammation-related physiologically active substances such as cytokine, chemokine, prostaglandin and nitric monoxide. Examples of the measurement method for an elevation of intracellular calcium concentration include a method wherein a calcium-binding fluorescent probe is allowed to be incorporated in advance into a cultured cell line or an animal-derived isolated cell having PAR2, or a cell in which PAR2 is artificially expressed, a protease having the PAR2 activity function such as trypsin or a PAR2 agonist (synthetic peptides such as SLIGKV-NH2 (SEQ ID NO: 1) and SLIGRL-NH2 (SEQ ID NO: 2) is added to activate PAR2 whereby fluctuating intracellular calcium concentrations are detected as changes in the fluorescent signal. Alternatively, it is also possible to measure an intracellular calcium concentration by determining the quantity of a fluorescence intensity produced in proportion to the calcium concentration using a calcium-binding luminescent protein overexpressing cell line such as Aequorin. Specifically, examples include the methods described in Test Examples of the present specification.
Human embryonic kidney cell line HEK293 cells cultured using DMEM culture medium (Invitrogen) with 3% fetal bovine serum (3% FBS)-added was prepared to have a concentration of 2×10^5 cells/mL, and plated in a type I collagen-coated 384-well black plate (clear bottom) (Greiner) so as to be 25 μL/well and cultured in a CO2 incubator overnight. FLIPR Calcium Assay Kit (Molecular Devices) prepared with Hanks-20 mM Hepes buffer (pH 7.4) was added to the cells so as to be 25 μL/well and cultured in the CO2 incubator for 1 hour. Trypsin (SIGMA-ALDRICH, catalog number: T8816, Enzyme Commission Number 3.4.21.4) prepared so as to be 5 U/mL as final concentration (BAEE unit) with Hanks-20 mM Hepes buffer (pH 7.4) was added to a 384-well deep well polypropylene plate (Greiner) to be an agonist reagent plate. Thirty minutes before the measurement using FDSS6000 (Hamamatsu Photonics K.K.), a test compound prepared with Hanks-20 mM Hepes buffer (pH 7.4) was added to the cell so as to be 8 μL/well. The cell plate to which the test compound was added and the reagent plate were set on FDSS6000, 22 μL/well of the agonist solution was added from the reagent plate, and the change in intracellular calcium concentration was measured with a CCD camera. The measurement was carried out at 37° C. for 120 seconds and the addition of reagent from the reagent plate to the cell plate was carried out using a built-in 384-well automatic dispenser of FDSS6000.
Note that Reference Example 1 in Table 3 is the compound represented by formula (XIX) synthesized in the above Reference Example 1 (hereinafter, also referred to as Compound (XIX)). Additionally, the “Comparative Compound” in Table 3 is the compound described in Patent Literature 4 represented by the following formula (XX) (I-343; hereinafter, also referred to as Compound (XX)).

[2] = target: T2, PAR2 (Mus musculus, UniProt P55086); assay: Measurement of PAR2 agonist (SLIGRL-NH2)-induced salivation in mouse; assay type: in vivo; conditions: C57BL/6J male mice, 0.3 mg/mL solution 10 mL/kg orally, 60 min before SLIGRL-NH2 i.p., saliva collected 10 min
T2 construct: orally administered to C57BL/6J male mice (Charles River), 6-10 weeks of age; tissue Charles River; host or cells: Living C57BL/6J male mice (in vivo; saliva secretion)
T2 sequence (P55086 26-399): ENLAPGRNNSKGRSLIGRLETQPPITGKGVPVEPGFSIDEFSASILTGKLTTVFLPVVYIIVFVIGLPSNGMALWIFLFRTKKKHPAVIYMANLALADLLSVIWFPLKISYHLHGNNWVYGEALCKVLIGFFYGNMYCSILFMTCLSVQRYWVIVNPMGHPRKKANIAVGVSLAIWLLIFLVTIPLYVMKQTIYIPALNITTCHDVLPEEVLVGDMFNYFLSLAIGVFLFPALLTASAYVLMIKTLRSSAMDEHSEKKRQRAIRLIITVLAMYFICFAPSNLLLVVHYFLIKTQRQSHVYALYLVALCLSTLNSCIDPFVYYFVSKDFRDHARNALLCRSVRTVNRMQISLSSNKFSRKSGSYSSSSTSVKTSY
Experimental: The test compound was added to a 0.5% carboxymethyl cellulose solution to which 2% DMSO was added, so as to have the final concentration of 0.3 mg/mL, thereby preparing an administration solution containing the test compound. The administration solution containing the test compound (10 mL/kg) was orally administered to C57BL/6J male mice (Charles River), 6-10 weeks of age, using an oral sonde and a syringe. Forty-five minutes after the administration of the test compound, 10 mL/kg of a 20% (w/v) urethane solution was intraperitoneal administered to the mice which were then anesthetized. Sixty minutes after the administration of the test compound, 10 mL/kg of a 0.1 mg/mL SLIGRL-NH2 (SEQ ID NO: 2) solution was intraperitoneally administered as the PAR2 agonist and a cotton ball was immediately placed in the oral cavity of the mouse to collect the saliva. Ten minutes after the administration of the PAR2 agonist, the cotton ball was removed and weighed to measure the amount of saliva secreted.
Note that Reference Example 1 in Table 4 is Compound (XIX). Additionally, Comparative Compound in Table 4 is Compound (XX).

[3] = test system: DNFB-induced dermatitis in BALB/c male mice; assay: Mouse dermatitis model (DNFB-induced auricle swelling); assay type: in vivo; conditions: 0.3 mg/mL solution 10 mL/kg orally 8 hours after DNFB induction, auricle thickness on following day
Experimental: The test compound was added to a 0.5% carboxymethyl cellulose solution so as to have the final concentration of 0.3 mg/mL, thereby preparing an administration solution containing the test compound. Hapten used was 2,4-dinitrofluorobenzene (DNFB, Wako Pure Chemical Industries).
Twenty-five (25) μL of a solution of DNFB diluted to 0.4% with a mixed solvent of acetone and an olive oil in a volume ratio of 2:1 was applied twice to the shaved abdominal region of BALB/c male mice (Charles River), 6-10 weeks of age, over a period of 2 days to create the sensitization. Four days after the sensitization, on the first day, 20 μL of a solution of DNFB diluted to 0.2% with a mixed solvent of acetone and an olive oil in a volume ratio of 2:1 was applied to the right auricle of the mouse to induce dermatitis. Eight hours after the induction of dermatitis, the administration solution containing the test compound (10 mL/kg) was orally administered to the mouse. On the day following the induction of dermatitis, the right auricle thickness of the mouse was measured using a thickness gauge to evaluate the action of the test compound.
Note that Reference Example 1 in Table 5 is Compound (XIX).

Structure (SMILES): COc1cccc(F)c1N(C)c1cc(-c2cc(F)c(F)c(F)c2)nc2cc(C(=O)N(C)[C@H](C)CC(=O)O)nn12 [Example 7, (R)-3-(7-((2-fluoro-6-methoxyphenyl)(methyl)amino)-N-methyl-5-(3,4,5-trifluorophenyl)pyrazolo[1,5-a]pyrimidine-2-carboxamide)butanoic acid]
- IC50 [1]: 1.74 nM
- Inhibitory activity on the PAR2-dependent saliva secretion (%) [2]: 96.0%
- Inhibitory activity on auricle swelling (%) [3]: 61.6%

Structure (SMILES): CCCN(c1cc(-c2cc(F)c(Cl)c(F)c2)nc2cc(C(=O)N3C[C@@H]4[C@@H](CC(=O)O)[C@@H]4C3)nn12)C(C)C [Example 15, 2-((1α,5α,6α)-3-(5-(4-chloro-3,5-difluorophenyl)-7-(isopropyl(propyl)amino)pyrazolo[1,5-a]pyrimidine-2-carbonyl)-3-azabicyclo[3.1.0]hexan-6-yl)acetic acid]
- IC50 [1]: 12.8 nM
- Inhibitory activity on auricle swelling (%) [3]: 17.4%
